Consider 6 molecules from BindingDB's records for PubMed 1353247 (University of Nebraska, 1992).

“And” between values parts separate entries of the source, which are not always exact repeats. Equal entries are not always repeated.

In experiment [1] the target is T1, Alpha-2B adrenergic receptor (Rattus norvegicus, UniProt P19328).
T1 sequence (P19328 whole entry): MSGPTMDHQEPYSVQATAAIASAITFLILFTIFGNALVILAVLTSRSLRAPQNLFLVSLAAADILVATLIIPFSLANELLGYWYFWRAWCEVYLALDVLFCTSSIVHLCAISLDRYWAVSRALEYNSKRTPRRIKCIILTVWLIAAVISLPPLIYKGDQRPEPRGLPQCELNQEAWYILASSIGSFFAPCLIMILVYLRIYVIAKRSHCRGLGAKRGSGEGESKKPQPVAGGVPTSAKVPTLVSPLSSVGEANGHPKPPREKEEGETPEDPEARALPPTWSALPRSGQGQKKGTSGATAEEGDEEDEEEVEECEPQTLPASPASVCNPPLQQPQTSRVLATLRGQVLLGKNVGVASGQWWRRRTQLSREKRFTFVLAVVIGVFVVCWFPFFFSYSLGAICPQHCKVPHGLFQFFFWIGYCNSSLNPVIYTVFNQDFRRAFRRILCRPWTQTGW

Experiment [2] deals with T2, Alpha-2C adrenergic receptor (Homo sapiens, UniProt P18825).
T2 sequence (P18825 whole entry): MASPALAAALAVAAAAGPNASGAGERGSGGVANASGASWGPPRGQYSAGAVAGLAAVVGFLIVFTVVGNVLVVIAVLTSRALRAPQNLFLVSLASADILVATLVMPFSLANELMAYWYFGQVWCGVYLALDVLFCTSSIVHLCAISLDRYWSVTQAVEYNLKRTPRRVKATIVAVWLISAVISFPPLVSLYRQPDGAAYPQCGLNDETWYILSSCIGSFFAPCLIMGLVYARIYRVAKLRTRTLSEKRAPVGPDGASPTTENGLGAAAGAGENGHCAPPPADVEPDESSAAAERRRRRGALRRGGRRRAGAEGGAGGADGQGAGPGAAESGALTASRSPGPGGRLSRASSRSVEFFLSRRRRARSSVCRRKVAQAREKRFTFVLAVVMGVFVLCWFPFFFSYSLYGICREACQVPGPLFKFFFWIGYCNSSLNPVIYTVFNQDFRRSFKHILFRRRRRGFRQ

Experiment [3] deals with Alpha-2C adrenergic receptor.
Experiment [4] has as its target T3, Alpha-2A adrenergic receptor (Homo sapiens, UniProt P08913).
T3 sequence (P08913 whole entry): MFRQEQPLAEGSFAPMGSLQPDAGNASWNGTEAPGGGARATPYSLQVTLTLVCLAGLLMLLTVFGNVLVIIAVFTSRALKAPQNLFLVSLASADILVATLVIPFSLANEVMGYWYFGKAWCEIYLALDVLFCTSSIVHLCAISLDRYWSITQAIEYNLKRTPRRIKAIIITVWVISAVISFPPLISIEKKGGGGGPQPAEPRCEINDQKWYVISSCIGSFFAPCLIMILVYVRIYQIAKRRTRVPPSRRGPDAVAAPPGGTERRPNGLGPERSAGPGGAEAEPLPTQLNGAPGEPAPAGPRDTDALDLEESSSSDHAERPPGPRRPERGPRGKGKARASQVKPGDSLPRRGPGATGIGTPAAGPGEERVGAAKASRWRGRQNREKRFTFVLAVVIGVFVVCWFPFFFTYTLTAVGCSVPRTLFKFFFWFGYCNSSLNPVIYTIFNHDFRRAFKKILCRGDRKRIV

Broadly, the Ki is a measure of affinity in units of concentration, obtained from inhibition or displacement. Low readings indicate tighter binding, high ones weaker binding. For the molecule `O=C1NCN(c2ccccc2)C12CCN(CC1COc3ccccc3O1)CC2` (stereo not drawn) [8-(2,3-Dihydro-benzo[1,4]dioxin-2-ylmethyl)-1-phenyl-1,3,8-triaza-spiro[4.5]decan-4-one], the inhibitory constant (Ki) was 0.29 nM in experiment [1]; 0.13 nM in experiment [2]; 0.26 nM in experiment [3]; 5.5 nM and 8.3 nM in experiment [4].
`COC(=O)C1=CO[C@@H](C)[C@@H]2CN3CCc4c([nH]c5ccccc45)[C@H]3C[C@H]12` [AKUAMMIGINE]: the inhibition constant Ki in experiment [1] was 159 nM; in experiment [3], 20 nM; in experiment [4] it was 71 nM and 104 nM.
For the molecule `COC(=O)C1=COC(C)C2CN3CCc4c([nH]c5ccccc45)C3CC12` (stereo not drawn) [Ajmalicine], the Ki is 31.2 nM in experiment [1], 1.71 nM in experiment [3] and 6.4 nM in experiment [4].
Consider `CN1C[C@H](Cn2ccnc2-c2ccccc2)C[C@@H]2c3cccc4[nH]c(Br)c(c34)C[C@H]21` [BAM-1303], for which the Ki is 6.94 nM in experiment [1]; 0.39 nM in experiment [2]; 0.39 nM and 1.34 nM in experiment [4].
With `COc1ccccc1N1CCN(CCC2C(=O)c3ccccc3C(C)(C)C2=O)CC1` (stereo not drawn) [NSC_122211], the Ki in experiment [2] amounted to 3.82 nM. This counts as single-digit nanomolar.
Turning to `COc1cccc(OC)c1OCCNCC1Oc2ccccc2OC1c1ccccc1` (stereo not drawn) [NSC_185453], the Ki is 7.89 nM in experiment [1]; 0.4 nM in experiment [2]; 0.75 nM in experiment [3]; 0.91 nM and 1.27 nM in experiment [4].
